These results are taken from US6369059B1, “Tetracyclic derivatives, process of preparation and use” (ICOS Corporation, priority 1994, dated 2002).

pEC50, pIC50: −log10 of the molar value.

Data set [1] deals with T1, human recombinant PDE V (Homo sapiens, UniProt O76074).
T1 construct: purchased ICOS, Seattle USA
Kind of data set: Inhibitory effect on cGMP-PDE (one-step assay adapted from Wells et al.). The settings on record: 0.15 μM 8-[H3]-cGMP, 30 minutes incubation, 2% DMSO. The format is biochemical. The method, then: The enzyme used was a human recombinant PDE V (ICOS, Seattle USA).
Compounds of the invention were dissolved in DMSO finally present at 2% in the assay.

Data set [2] deals with Rat aortic smooth muscle cells (RSMC). Kind of data set: cGMP level measurements in ANF-stimulated cells. The settings on record: 30 minutes at 37° C. with compound, then ANF (100 nM) for 10 minutes, c-GMP by scintillation proximity immunoassay. It is filed as cell-based. The method, then:
Rat aortic smooth muscle cells (RSMC) prepared according to Chamley et al. in Cell Tissue Res. 177 503-522 (1977) were used between the 10th and 25th passage at confluence in 24-well culture dishes. Culture media was aspirated and replaced with PBS (0.5 ml) containing the compound tested at the appropriate concentration. After 30 minutes at 37° C., particulates guanylate cyclase was stimulated by addition of ANF (100 nM) for 10 minutes. At the end of incubation, the medium was withdrawn and two extractions were performed by addition of 65% ethanol (0.25 ml). The two ethanolic extracts were pooled and evaporated until dryness, using a Speed-vac system. c-GMP was measured after acetylation by scintillation proximity immunoassay ([…]).

Data set [3] concerns conscious spontaneously hypertensive rats (SHR). Kind of data set: Antihypertensive activity in rats. To be noted: orally 5 mg/kg in 5% DMF and 95% olive oil, carotid artery catheter, recorded for 5 hours. The format is in vivo, rat. As for the experimental part: The hypotensive effects of compounds according to the invention as identified in table 2 were studied in conscious spontaneously hypertensive rats (SHR). The compounds were administered orally at a dose of 5 mg/kg in a mixture of 5% DMF and 95% olive oil. Blood pressure was measured from a catheter inserted in the carotid artery and recorded for 5 hours after administration. The results are expressed as Area Under the Curve (AUC from 0 to 5 hours, mmHg.hour) of the fall blood pressure over time.

Usually pIC50 stands for −log10 of the IC50, conventionally taken in molar units. A word on the pEC50: it is the EC50 on a negative log10 scale, so that one unit is a factor of ten. As usually defined, the melting point is the temperature of the solid-liquid transition.

For the compound `O=C1[C@H]2Cc3c([nH]c4ccccc34)[C@H](c3ccc4c(c3)OCO4)N2C(=O)CN1Cc1ccncc1` (relative stereo) [Example 12, Cis-2,3,6,7,12,12a-Hexahydro-2-(4-pyridylmethyl)-6-(3,4-methylenedioxyphenyl)-pyrazino[2′,1′:6,1]pyrido[3,4-b]indole-1,4-dione], the melting point lay within 273 to 274 °C. Moreover, the pIC50 in data set [1] was 8.00. In addition, in data set [2], the pEC50 was 6.82.

Consider `CN1CC(=O)N2[C@@H](c3ccc4c(c3)CCO4)c3[nH]c4ccccc4c3C[C@@H]2C1=O` (relative stereo) [Example 36, Cis-2,3,6,7,12,12a-Hexahydro-6-(2,3-dihydrobenzo[b]furan-5-yl)-2-methyl-pyrazino[2′,1′:6,1]pyrido[3,4-b]indole-1,4-dione], for which the melting point fell in the range of 292 to 294 °C. Moreover, in data set [1], the pIC50 was more than 8.00. In data set [2], the pEC50 was 6.30. In data set [3], the “AUC PO (fall in blood pressure over time, AUC from 0 to 5 hours)” value came out at 99 mmHg.h.

For `CN1CC(=O)N2C(Cc3c([nH]c4ccccc34)C2c2ccc(Br)s2)C1=O` (stereo not drawn) [Example 52, Cis-2,3,6,7,12,12a-Hexahydro-65-bromo-2-thienyl)-2-methyl-pyrazino[2′,1′:6,1]pyrido[3,4-b]indole-1,4-dione], the melting point was 258 °C. Besides, the pIC50 in data set [1] is 7.70. Moreover, in data set [2], the negative-log EC50 (pEC50) was 6.10.

`CCCCN1CC(=O)N2C(Cc3c([nH]c4ccccc34)C2c2ccc(C)cc2)C1=O` (stereo not drawn) [Example 63, Cis-2 3,6,7,12,12a-Hexahydro-2-butyl-6-(4-methylphenyl)-pyrazino[2′,1′:6,1]pyrido[3,4-b]indole-1,4-dione] returned a melting point of 194 °C. The pIC50 in data set [1] is 7.52. In data set [2], the pEC50 is 6.46. The “AUC PO (fall in blood pressure over time, AUC from 0 to 5 hours)” value in data set [3] was 95 mmHg.h.

In turn, `CC(C)N1CC(=O)N2[C@H](c3ccc4c(c3)OCO4)c3[nH]c4ccccc4c3C[C@@H]2C1=O` [Example 79, (6R,12aR)-2,3,6,7,12,12a-Hexahydro-2-isopropyl-6-(3,4-methylenedioxyphenyl)-pyrazino[2′,1′:6,1]pyrido[3,4-b]indole-1,4-dione] yielded a melting point of 290 to 293 °C. For the same compound, the pIC50 in data set [1] was more than 8.00. Also, in data set [2], the pEC50 was 6.82. In addition, the “AUC PO (fall in blood pressure over time, AUC from 0 to 5 hours)” value in data set [3] is recorded as 171 mmHg.h.

On to `O=C1[C@H]2Cc3c([nH]c4ccccc34)[C@@H](c3ccc4c(c3)OCO4)N2C(=O)CN1C1CCCC1` [Example 82, (6R,12aR)-2,3,6,7,12,12a-Hexahydro-2-cyclopentyl-6-(3,4-methylenedioxyphenyl)-pyrazino[2′,1′:6,1pyrido3,4-b]indole-1,4-dione], for which the melting point was in the range of 237 to 239 °C. Besides, the pIC50 in data set [1] is 7.70. Also, in data set [2], the pEC50 was 6.30. In addition, in data set [3], the “AUC PO (fall in blood pressure over time, AUC from 0 to 5 hours)” value was found to be 111 mmHg.h.

As to `COc1ccc([C@@H]2c3[nH]c4ccccc4c3C[C@@H]3C(=O)N(CC4CC4)CC(=O)N23)cc1` [Example 84, (6R,12aR)-2,3,6,7,12,12a-Hexahydro-2-cyclopropylmethyl-6-(4-methoxyphenyl)-pyrazino[2′,1′:6.1]pyrido[3,4-b]indole-1,4-dione], the melting point lay within 204 to 205 °C. In addition, the pIC50 in data set [1] is 8.00. The pEC50 in data set [2] is 6.40. The “AUC PO (fall in blood pressure over time, AUC from 0 to 5 hours)” value in data set [3] was found to be 77 mmHg.h.

Consider `COc1ccc([C@@H]2c3[nH]c4ccccc4c3C[C@@H]3C(=O)N(C)CC(=O)N23)cc1Cl` [Example 89], for which the melting point fell in the range of 283 to 284 °C. The negative-log IC50 (pIC50) in data set [1] was 8.00. For the same compound, in data set [2], the pEC50 is more than 7.00. Besides, in data set [3], the “AUC PO (fall in blood pressure over time, AUC from 0 to 5 hours)” value is 117 mmHg.h.

For the compound `CN1CC(=O)N2[C@H](c3ccc4c(c3)OCO4)c3[nH]c4ccccc4c3C[C@@H]2C1=O` [Example 95, (6R,12aR)-2,3,6,7,12,12a-Hexahydro-2-methyl-6-(3,4-methylenedioxyphenyl)-pyrazino[2′,1′:6,1]pyrido[3,4-b]indole-1,4-dione], the pEC50 in data set [2] is 6.70. Moreover, in data set [3], the “AUC PO (fall in blood pressure over time, AUC from 0 to 5 hours)” value is given as 135 mmHg.h.

Turning to `O=C1NCC(=O)N2[C@H](c3ccc4c(c3)OCO4)c3[nH]c4ccccc4c3C[C@H]12` [Example 101, (6R,12aR)-2,3,6,7,12,12a-Hexahydro-4-(3,4-methylenedioxyphenyl)-pyrazino[2′,1′:6,1]pyrido [3,4-b]indole-1,4-dione], the melting point was in the range of 285 to 290 °C. In addition, in data set [1], the pIC50 is 8.00. The negative logarithm of the EC50 (pEC50) in data set [2] was 6.52. Besides, the “AUC PO (fall in blood pressure over time, AUC from 0 to 5 hours)” value in data set [3] was found to be 136 mmHg.h.

Take `O=C1[C@H]2Cc3c([nH]c4ccccc34)[C@@H](c3ccc4c(c3)OCO4)N2C(=O)[C@@H]2CCCN12` [Example 115, (5aR, 12R,14aS)-1,2,3,5,6,11,12,14a-Octahydro-12-(3,4-methylenedioxyphenyl)-pyrrolo[1″,2″:4′,5′]pyrazino[2′,1′:6,1]pyrido[3,4-b]indole-5-1,4-dione]: the melting point was 302 to 304 °C. Besides, the pIC50 in data set [1] is more than 8.00. Also, in data set [2], the negative logarithm of the EC50 (pEC50) was 6.40.

Consider `C[C@H]1C(=O)N2[C@H](c3ccc4c(c3)OCO4)c3[nH]c4ccccc4c3C[C@@H]2C(=O)N1C` [Example 117, (3S,6R,12aR)-2,3,6,7,12,12a-Hexahydro-2,3-dimethyl-6-(3,4-methylenedioxyphenyl)-pyrazino[2′,1′:6,1]pyrido[3,4-b]indole-1,4-dione], for which the melting point lay within 307 to 309 °C.
